According to patent US8299061B2, “Inhibitors of diacylglycerol acyltransferase” (Eli Lilly and Company, priority 2009, dated 2012):
Several values for one entry are separate records, joined by “and”; a condition that tells them apart may be missing. Equal entries are not always repeated. Where two headings read alike, the source gives them in different places.

Tests used:
recombinant human DGAT-1 = biological target: T1, recombinant human DGAT-1 (Homo sapiens, UniProt O75907); test: DGAT-1 enzyme assay; format: biochemical; settings: recombinant human DGAT-1 expressed in sf9 insect cells; geometric mean±standard error
T1 construct: made in house; host or cells: sf9 insect cells (recombinant baculovirus); crude cell homogenate used
T1 sequence (O75907 1-488): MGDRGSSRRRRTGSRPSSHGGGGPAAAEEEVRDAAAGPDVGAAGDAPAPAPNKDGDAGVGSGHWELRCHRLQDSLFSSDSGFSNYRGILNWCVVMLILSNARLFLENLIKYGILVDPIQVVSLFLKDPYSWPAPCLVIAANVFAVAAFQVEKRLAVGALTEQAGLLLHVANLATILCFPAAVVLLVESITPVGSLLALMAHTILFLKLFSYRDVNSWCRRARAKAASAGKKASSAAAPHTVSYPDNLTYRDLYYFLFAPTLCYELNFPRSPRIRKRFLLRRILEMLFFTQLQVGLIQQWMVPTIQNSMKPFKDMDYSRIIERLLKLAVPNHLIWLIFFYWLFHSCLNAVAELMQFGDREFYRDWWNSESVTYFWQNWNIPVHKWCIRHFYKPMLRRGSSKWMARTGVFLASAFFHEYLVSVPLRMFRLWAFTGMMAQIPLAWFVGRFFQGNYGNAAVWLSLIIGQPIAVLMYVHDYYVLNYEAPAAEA
Description: DGAT-1 enzyme assay Inhibitors of DGAT-1 are identified with an in vitro enzymatic assay which uses recombinant human DGAT-1 expressed in sf9 insect cells as an enzyme source. DGAT-1 enzyme is produced by infecting cells with recombinant baculovirus containing a DGAT-1 expression vector. After 48 hr infection cells are harvested by centrifugation, resuspended in cold 20 mM NaCl, and disrupted with a Dounce homogenizer. Fifteen milliliters of 20 mM NaCl are added to a cell pellet for each liter of infected cell suspension. DNA in the homogenate is sheared by pulling the cell extract through a 25 gauge needle. DGAT-1 activity in the baculovirus infected cell homogenate is compared to homogenate from uninfected cells to assess background enzymatic activity associated with sf9 cells.
Assays are performed in 96 well plates using a modification of the assay described by Coleman (Methods in Enzymology 209. pp 98-102 (1992)). Briefly, compounds are tested in a 1:3 serial dilution scheme from 100 μM to 1.7 nM final concentration. The enzyme reaction mixture contains substrates 250 μM 1,2-sn-diacylglycerol (Avanti Polar Lipids), 5 μM ^14C oleoyl CoA, and 45 μM oleoyl CoA in an aqueous buffer containing 150 mM Hepes buffer pH7.4, 0.7% vol/vol Triton® X-100 and Complete™ protease inhibitors. […] One hundred microliters of scintillation cocktail is then added and, after 8 hr, plates are counted. […]

[1] = system: C57 B16 mice fed a high fat diet; test: Diet-induced obese mouse model; format: in vivo; settings: twice daily oral gavage, meta-analysis; for Vehicle controlled percent Fat Mass Change, Mean: QNMR; for Vehicle controlled percent Food Intake Change, Mean: cumulative food intake
Description: Diet-induced obese mouse model: To measure effects on body weight and food intake, compounds are tested in C57 B16 mice fed a high fat diet (Research Diets D12492). Fourteen week old mice raised on D12492 are acclimated to the test vivarium for 2 weeks on a 12 hour light/dark cycle. Seven days prior to compound testing, animals are dosed by oral gavage either once or twice daily with a suitable vehicle in order to accustom the mice to handling. On day 6 of vehicle dosing, body composition is measured by quantitative nuclear magnetic resonance (QNMR). On day seven of vehicle dosing, animals are randomized by body weight and sorted into test groups (n=8). Compound dosing, twice daily, commences after 7 days of vehicle dosing. Animals are given compound 30 minutes prior to the dark phase of the dark/light cycle and, if desired, again 5.5 hours into the dark phase. Compound dosing continues for 15 to 22 days during which time food intake and body weight are measured daily. On day 14 of the experiment, body composition is measured for a second time by QNMR. On day 15, terminal bleeds are taken from two animals per test group at 0, 2, 4, and 6 hours after the final dose for measurement of test compound levels in plasma.
The data are analyzed using a meta-analysis. For the percent Body Weight gain (loss) and percent Fat Mass gain (loss), the measure of treatment effect in the meta-analysis is the group mean difference between treatment and control group. For the percent Cumulative Food Intake Change from Control (% CFICFC), the measure of treatment effect is % CFICFC itself. The overall treatment effect is estimated as the weighted average of treatment effect from individual studies, with the weights being the inverse of variance of individual study's treatment effect estimates. The homogeneity Q-test is performed. If the test is significant at 0.10 level, then a mixed-effect model is used to include both inter-study and intra-study variability. The weights are adjusted to the inverse of the sum of inter-study variance and the intra-study variance of treatment effect estimates from individual studies. The inter-study variance is estimated by the Paule-Mandel estimator. (References: Sutton, A. J., Jones, D. R., Abrams, K. R., Sheldon, T. A., and Song, F., Methods for Meta-analysis in Medical Research London, John Wiley, ISBN 0-471-49066-0 (2000). Dersimonian R., and Kacker, R., Random-effects model for meta-analysis of clinical trials: An update, Contemporary Clinical Trials 28 p 105-114 (2007). Compounds are tested substantially by the diet-induced obese mouse model method described herein.
For N-[1-[[(4R)-5,6-dihydro-4H-imidazo[1,2-a][1]benzazepin-4-yl]carbamoyl]cyclopropyl]-4-ethoxy-benzamide (Examples 1, 3, 57), three experiments were performed at doses of 1, 3, 10 and 30 mg/kg (two of the experiments) and 3 and 30 mg/kg (one of the experiments). Because the 3 and 30 mg/kg doses are common to the experiments, these doses are used to compare the results.
For 4-Chloro-N-[1-[[(4R)-5,6-dihydro-4H-imidazo[1,2-a][1]benzazepin-4-yl]carbamoyl]cyclopropyl]benzamide (Examples 2, 21, 58), two experiments were performed at doses of 3, 10, 30 and 60 mg/kg and at 0.3, 1, 3 and 10 mg/kg. For each of the experiments, the doses are given twice per day. Because the 3 and 10 mg/kg doses are common to the experiments, these doses are used to compare the results.

Male Sprague-Dawley rats = test: Oil bolus absorption model (plasma triglyceride after olive oil bolus); format: in vivo, rat; settings: for ED80: dose reducing increase in plasma triglyceride by 80%
Description: Male Sprague-Dawley rats (280-320 g, n=6 per test group) on regular chow are acclimated to the test vivarium for at least 1 week prior to compound evaluation. Prior to compound testing, rats are fasted for 16 hour. Compounds are administered via oral gavage in a vehicle of 10% ethanol/90% corn oil at a volume of 1 ml/kg. Four hours after compound administration, a 0.5 ml blood sample is collected via the tail vein. Immediately following the 4 hour blood collection, a 3.0 ml bolus of olive oil is administered by oral gavage. A final blood sample is collected from the tail vein 6 hours after compound administration. Plasma is prepared from blood samples by centrifugation and analyzed for both triglyceride content, using a Hitachi 912 clinical chemistry analyzer, and test compound levels. The effective dose that reduces the increase in plasma triglyceride by 50% (ED50) and 80% (ED80) is determined DGAT-1 inhibition is indicative of the ability of the test compound to inhibit the increase in plasma triglyceride that occurs between hours 4 and 6 of the study (between 14 and 16 hours in the modified model) in vehicle treated (control) animals. In a modification of the model, compound is administered 14 hours prior to the first blood sample collection and oil bolus administration. The final blood sample is collected at 16 hours after dosing. In this longer duration version of the model, the 10% ethanol/90% corn oil vehicle is administered, without compound, at 10 hours after compound dosing to be consistent with the shorter duration version of the model. Compounds are tested substantially by the oil bolus absorption rat model method described herein.
For the compound N-[1-[[(4R)-5,6-dihydro-4H-imidazo[1,2-a][1]benzazepin-4-yl]carbamoyl]cyclopropyl]-4-ethoxy-benzamide (Examples 1, 3, 57), the three experiments used doses of 1, 3, 10 and 30 mg/kg. For the compound 4-Chloro-N-[1-[[(4R)-5,6-dihydro-4H-imidazo[1,2-a][1]benzazepin-4-yl]carbamoyl]cyclopropyl]benzamide (Examples 2, 21, 58), experiment 1 used doses of 0.3, 1, 3, 10 and 30 mg/kg, and for experiments 2 and 3, the doses used are 0.1, 0.3, 1, 3 and 10 mg/kg.
The data are analyzed using meta-analysis. The overall ED50 (ED80) is estimated as the weighted average of ED50 (ED80) from individual studies, with the weights being the inverse of variance of ED50 (ED80) estimates. The homogeneity Q-test is performed. If the test is significant at 0.10 level, a mixed-effect model is used to include both inter-study and intra-study variability. The weights are adjusted to the inverse of the sum of inter-study variance and the intra-study variance of ED50 (ED80) from individual studies. The inter-study variance is estimated by the Paule-Mandel estimator. (References: Sutton, A. J., Jones, D. R., Abrams, K. R., Sheldon, T. A., and Song, F., Methods for Meta-analysis in Medical Research London, John Wiley, ISBN 0-471-49066-0 (2000). Dersimonian R., and Kacker, R., Random-effects model for meta-analysis of clinical trials: An update, Contemporary Clinical Trials 28 p 105-114 (2007).

mouse 3T3-L1 adipocytes = test: Adipocyte triglyceride synthesis assay; format: cell-based; settings: inhibition of triglyceride synthesis, 14C acetate, 4 hours, geometric mean±standard error
Description: Adipocyte Triglyceride Synthesis Assay: This assay measures the ability of compounds to inhibit triglyceride synthesis in intact mouse 3T3-L1 adipocytes. Undifferentiated 3T3-L1 cells are cultured in 96 well plates at a density of 25,000 cells per well using standard tissue culture conditions. After two days in culture, the cells are differentiated to adipocytes by placing them in media supplemented with 0.5 mM 1-methyl-3-isobutylxanthine (IBMX), 10 μg/mL insulin and 1 μM dexamethasone. After five days in culture, cells are grown in media supplemented only with 10 μg/mL insulin. Assays are performed after cells have been in culture 12 days. To begin the assay, culture media is removed from the cells and replaced with 50 μl OptiMEM® media containing 0.375 μCi/well ^14C acetate. Cells are then incubated at 37° C. in 7.5% CO2 for 4 hours. At the end of this incubation, media is removed, cells are washed once with Hank's balanced salts, and 25 μl of 0.7% Triton® X-100 is added to each well and allowed to extract the cells for 5 minutes. At the end of this period, 75 μl of a solution containing 58.8% isopropanol, 14.7% n-heptane, 11.5% water, 12.5% ethanol, and 2.5% 1N sodium hydroxide is added to each well and plates are shaken on an orbital shaker for 2 minutes. 100 μl of heptane is then added and plates are shaken for another 2 minutes. […]

Row | IC50 (recombinant human DGAT-1) | Compound | Vehicle controlled percent Fat Mass Change, Mean ([1]; 3 mg/kg − control) | Vehicle controlled percent Food Intake Change, Mean ([1]; 3 mg/kg − control) | Vehicle controlled percent Body Weight Change, Mean ([1]; 3 mg/kg − control) | Vehicle controlled percent Fat Mass Change, Mean ([1]; 30 mg/kg − control) | Vehicle controlled percent Food Intake Change, Mean ([1]; 30 mg/kg − control) | Vehicle controlled percent Body Weight Change, Mean ([1]; 30 mg/kg − control) | ED50 (Male Sprague-Dawley rats; 16 hour oil bolus study, rat, oral gavage, dose reducing increase in plasma triglyceride by 50%, individual experiments) | ED80 (Male Sprague-Dawley rats; 16 hour oil bolus study, rat, oral gavage, individual experiments) | ED80 Mean (meta-analysis) (Male Sprague-Dawley rats; 16 hour oil bolus study, weighted average of three experiments) | ED50 (Male Sprague-Dawley rats; Rattus norvegicus, 16 h, 16 hour oil bolus study, weighted average of three experiments, read-out: ED50 Mean (meta-analysis)) | EC50 (mouse 3T3-L1 adipocytes) | Vehicle controlled percent Fat Mass Change, Mean ([1]; 10 mg/kg − control) | Vehicle controlled percent Food Intake Change, Mean ([1]; 10 mg/kg − control) | Vehicle controlled percent Body Weight Change, Mean ([1]; 10 mg/kg − control) | ED50 (Male Sprague-Dawley rats; 6 hour oil bolus study, rat, oral gavage, dose reducing increase in plasma triglyceride by 50%, individual experiments) | ED80 (Male Sprague-Dawley rats; 6 hour oil bolus study, rat, oral gavage, individual experiments) | ED80 Mean (meta-analysis) (Male Sprague-Dawley rats; 6 hour oil bolus study, weighted average of experiments) | ED50 (Male Sprague-Dawley rats; Rattus norvegicus, 6 h, 6 hour oil bolus study, weighted average of experiments, read-out: ED50 Mean (meta-analysis))
1 | 0.134 ± 0.008 µM | CCOc1ccc(C(=O)NC2(C(=O)N[C@@H]3CCc4ccccc4-n4ccnc43)CC2)cc1 [Example 1, N-[1-[[(4R)-5,6-dihydro-4H-imidazo[1,2-a][1]benzazepin-4-yl]carbamoyl]cyclopropyl]-4-ethoxy-benzamide] | −6.69% | −10.11% | −4.74% | −8.24% | −11.35% | −5.31% | 1.71 mg/kg and 12.37 mg/kg and 2.92 mg/kg | 5.52 mg/kg and 19.61 mg/kg and 7.64 mg/kg | 7.34 mg/kg | 5.3 mg/kg | 0.175 µM | – | – | – | – | – | – | –
2 | 0.089 ± 0.00098 µM | O=C(NC1(C(=O)N[C@@H]2CCc3ccccc3-n3ccnc32)CC1)c1ccc(Cl)cc1 [Example 2, 4-Chloro-N-[1-[[(4R)-5,6-dihydro-4H-imidazo[1,2-a][1]benzazepin-4-yl]carbamoyl]cyclopropyl]benzamide] | −9.53% | −11.31% | −4.65% | – | – | – | – | – | – | – | 0.213 µM | −8.41% | −8.43% | −4.54% | 0.26 mg/kg and 0.73 mg/kg and 0.57 mg/kg | 0.45 mg/kg and 2.22 mg/kg | 0.54 mg/kg | 0.32 mg/kg
